From US20040220403A1, “1-(2-Methoxybenzyl)-3-benzhydrylpiperazines as tachykinin anatgonists” (priority 2001, published 2004)

System: Emesis in the Dog
Assay: Emesis in the Dog (apomorphine-induced retching and vomiting)
Assay type: in vivo
Details: adult female dogs; test compound i.v. at the dose of 1.0 mg/kg; 5 min later subcutaneous apomorphine (0.1 mg/0.5 ml/kg); observed for the next 60 min
Procedure: Individually housed adult female dogs (8 to 15 kg) were given an i.v. injection of a solution containing a test compound. 5 Min later the emetic responses (retching and vomiting) were induced by administration of subcutaneous apomorphine (0.1 mg/0.5 ml/kg) and observed for the next 60 min. The timing and number of retches and vomits observed were recorded for each animal. An individual animal was tested with at least 10 days between experiments.

SMILES | inhibition rate of emesis in the dog
COc1ccc(-n2nnnc2C(F)(F)F)c(OC)c1CN1C[C@@H]2CN(C(=O)N(C)C)CCN2[C@H](C(c2ccccc2)c2ccccc2)C1.Cl.Cl [52-(5), (6R,9aR)-6-Benzhydryl-8-[2,6-dimethoxy-3-[5-(trifluoromethyl)-1H-tetrazol-1-yl]benzyl]-N,N-dimethyloctahydro-2H-pyrazino[1,2-a]pyrazine-2-carboxamide dihydrochloride] | 100%
COc1ccc(-n2nnnc2C(F)(F)F)c(OC)c1CN1CCN(Cc2cnn(C)c2)[C@H](C(c2ccccc2)c2ccccc2)C1.Cl.Cl [57-(1), (2R)-2-Benzhydryl-4-[2,6-dimethoxy-3-[5-(trifluoromethyl)-1H-tetrazol-1-yl]benzyl]-1-[(1-methyl-1H-pyrazol-4-yl)methyl]piperazine dihydrochloride] | 100%
COc1ccc(-n2nnnc2C(F)(F)F)c(OC)c1CN1C[C@@H]2C[C@@H](NC(C)=O)CN2[C@H](C(c2ccccc2)c2ccccc2)C1.Cl.Cl [52-(14), N-[(4R, 7R, 8aS)-4-Benzhydryl-2-[2,6-dimethoxy-3-[5-(trifluoromethyl)-1H-tetrazol-1-yl]benzyl]octahydropyrrolo-[1,2-a]pyrazin-7-yl]acetamide dihydrochloride] | 100%

System: not given
Assay: not given
Details: not given

melting point | SMILES
140 to 159 °C | COc1ccc(-n2nnnc2C(F)(F)F)cc1CN1C[C@@H]2CN(C(=O)CO)CCN2[C@H](C(c2ccccc2)c2ccccc2)C1.Cl.Cl
132 to 135 °C | COCCC(=O)N1CCN2[C@H](CN(Cc3cc(-n4nnnc4C(F)(F)F)ccc3OC)C[C@H]2C(c2ccccc2)c2ccccc2)C1.Cl.Cl
147 to 154 °C | COc1ccc(-n2nnnc2C(F)(F)F)cc1CN1C[C@@H]2CN(C(=O)CCO)CCN2[C@H](C(c2ccccc2)c2ccccc2)C1.Cl.Cl
175 to 179 °C | COc1ccc(-n2nnnc2C(F)(F)F)cc1CN1C[C@@H]2CN(CC(C)=O)CCN2[C@H](C(c2ccccc2)c2ccccc2)C1.Cl.Cl.Cl
138 to 153 °C | COc1ccc(-n2nnnc2C(F)(F)F)cc1CN1C[C@@H]2CN(C(=O)COC(C)=O)CCN2[C@H](C(c2ccccc2)c2ccccc2)C1.Cl.Cl
160 to 170 °C | CNC(=O)N1CCN2[C@H](CN(Cc3cc(-n4nnnc4C(F)(F)F)ccc3OC)C[C@H]2C(c2ccccc2)c2ccccc2)C1.Cl.Cl
165 to 190 °C | COc1ccc(-n2nnnc2C(F)(F)F)cc1CN1C[C@@H]2CN(C(N)=O)CCN2[C@H](C(c2ccccc2)c2ccccc2)C1.Cl.Cl
150 to 158 °C | COc1ccc(-n2nnnc2C(F)(F)F)cc1CN1C[C@@H]2CN(C(=O)[C@H](C)O)CCN2[C@H](C(c2ccccc2)c2ccccc2)C1.Cl.Cl
158 to 164 °C | COc1ccc(-n2nnnc2C(F)(F)F)cc1CN1C[C@@H]2CN(C(=O)N(C)C)CCN2[C@H](C(c2ccccc2)c2ccccc2)C1.Cl.Cl

More lines, now with the values behind:

SMILES | melting point
COc1ccc(-n2nnnc2C(F)(F)F)cc1CN1C[C@@H]2CN(C(C=O)C(=O)N(C)C)CCN2[C@H](C(c2ccccc2)c2ccccc2)C1.Cl.Cl (stereo partly shown) | 155 to 168 °C
COc1ccc(-n2nnnc2C(F)(F)F)cc1CN1C[C@@H]2CN(C(=O)C3CCCCC3)CCN2[C@H](C(c2ccccc2)c2ccccc2)C1.Cl.Cl | 169 to 174.5 °C
COc1ccc(-n2nnnc2CC(F)(F)F)cc1CN1C[C@@H]2CN(C(=O)c3cccnc3)CCN2[C@H](C(c2ccccc2)c2ccccc2)C1.Cl.Cl.Cl | 197 to 200 °C
COc1ccc(-n2nnnc2C(F)(F)F)cc1CN1C[C@@H]2CN(C(=O)C(C)(C)OC(C)=O)CCN2[C@H](C(c2ccccc2)c2ccccc2)C1.Cl.Cl | 143 to 148 °C
COc1ccc(-n2nnnc2C(F)(F)F)cc1CN1C[C@@H]2CN(C(=O)CC(F)(F)F)CCN2[C@H](C(c2ccccc2)c2ccccc2)C1.Cl.Cl | 155 to 160 °C
COc1ccc(-n2nnnc2C(F)(F)F)cc1CN1C[C@@H]2CN(C(=O)C3CCCC3)CCN2[C@H](C(c2ccccc2)c2ccccc2)C1.Cl.Cl | 170 to 178 °C (dec.)
COc1ccc(-n2nnnc2C(F)(F)F)cc1CN1C[C@@H]2CN(C3CCC3)CCN2[C@H](C(c2ccccc2)c2ccccc2)C1.Cl.Cl.Cl | 184 to 187 °C
COc1ccc(-n2nnnc2C(F)(F)F)cc1CN1C[C@@H]2CN(S(N)(=O)=O)CCN2[C@H](C(c2ccccc2)c2ccccc2)C1.Cl.Cl | 174 to 176 °C
COc1ccc(-n2nnnc2C(F)(F)F)c(OC)c1CN1C[C@@H]2CN(C(=O)CO)CCN2[C@H](C(c2ccccc2)c2ccccc2)C1.Cl.Cl | 128 to 132 °C
COc1ccc(-n2nnnc2C(F)(F)F)cc1CN1C[C@@H]2CN(S(=O)(=O)N(C)C)CCN2[C@H](C(c2ccccc2)c2ccccc2)C1.Cl.Cl | 148 to 152 °C
COc1ccc(-n2nnnc2C(F)(F)F)cc1CN1C[C@@H]2CC(NC(=O)CO)CN2[C@H](C(c2ccccc2)c2ccccc2)C1.Cl.Cl (stereo partly shown) | 155 to 159 °C
COc1ccc(-n2nnnc2C(F)(F)F)cc1CN1C[C@@H]2CN(c3cccnc3)CCN2[C@H](C(c2ccccc2)c2ccccc2)C1.Cl.Cl.Cl | 175 to 178 °C
COc1ccc(-n2nnnc2C(F)(F)F)cc1CN1C[C@@H]2CN(S(=O)(=O)CS(C)(=O)=O)CCN2[C@H](C(c2ccccc2)c2ccccc2)C1.Cl.Cl | 162 to 168 °C
